Patent US11771086B2, “Pest control composition including novel iminopyridine derivative” (priority 2012, dated 2023)
Where two headings read alike, the source gives them in different places.

Legend:
Plutella xylostella [1] = test: whole plant or invertebrate; format: in vivo
Experimental: (§1) After an air drying process, second instar larvae were released thereto. […] The test was performed in duplicate.
(§2) Method for Judging Synergistic Effects

[2] = system: Haemaphysalis longicornis; test: whole plant or invertebrate; format: in vivo; details: for mortality at 0.00038 mg: read-out: Mortality of single agent against Haemaphysalis longicornis, single agent 0.38 μg
Experimental: A capsule with a diameter of 2 cm and a height of 2 cm was attached to the dorsal surface of a mouse. A compound of Formula (I), ivermectin, moxidectin, permethrin, amitraz, fipronil, spinetram and the mixture of the compound of Formula (I) and each insecticide were dissolved in ethanol at the concentrations given in […], and each of these was dripped onto the surface of a mouse body within a capsule. After thorough drying, eight Haemaphysalis longicornis nymphs were released and the top of the capsule was sealed with a lid. The mouse was kept in a cage at 25° C. using a 12-hour light period and a 12-hour dark period. Five days after the release, the capsule was removed and the number of surviving and dead nymphs and the number of engorged individuals were counted and the insect mortality and agonal rate was calculated by the following equation. Insect mortality and agonal rate (%)={number of dead and agonal insects/(number of survived insects+number of dead and agonal insects)}×100

Spodoptera litura = test: whole plant or invertebrate; format: in vivo
Experimental: After an air drying process, third instar larvae were released thereto. […] The test was performed in duplicate.
as §2

Laodelphax striatella [3] = test: whole plant or invertebrate; details: for mortality at 0.05 mg/seedling: read-out: Mortality of single agent against Laodelphax striatella, single agent 0.05 mg/Seedling; for mortality at 0.005 mg/seedling: read-out: Mortality of single agent against Laodelphax striatella, single agent 0.005 mg/Seedling; for Theoretical value by Colby's equation: Laodelphax striatella soil irrigation
Experimental: (§3) After the rice seedling was left to stand for 3 days, second instar larvae were released thereto. Thereafter, the larvae were left to stand in a thermostatic chamber (16 hours of light period-8 hours of dark period) at 25° C. […] The test was performed in duplicate. Mortality of larvae (%)={number of dead larvae/(number of survived larvae+number of dead larvae)}×100
B: 100−(mortality of larvae or adults when treated only with each of imidacloprid, fipronil, chlorantraniliprole, spinosad, clothianidin, dinotefuran, sulfoxaflor, pymetrozine, thiamethoxam, flupyradifurone and cycloxaprid))
as §2
When the mortality against Laodelphax striatella in the case of a mixture with another agent exceeded the theoretical value by the Colby's equation, a synergistic effect was judged to be present.

Chilo suppressalis = format: in vivo; details: soil irrigation, six days after release
Experimental: After standing for 3 days, second instar larvae were released thereto. […] The test was performed in duplicate.
as §2

Plutella xylostella [4] = test: Reference Test Example 1 Pest control test of Plutella xylostella (foliar treatment, single agent); format: in vivo; design: Plutella xylostella (Reference Test Example 1), mortality of larvae: concentration or dose not given beside the values; details: foliar treatment, single agent
From the text: After an air drying process, second instar larvae were released thereto. […] Test in duplicate.

Laodelphax striatella [5] = test: Reference Test Example 18 Pest control test of Laodelphax striatella (wheat seedling root treatment); format: in vivo; details: wheat seedling roots treated; four days after release; 20 μg/seedling
Experimental: The drug was absorbed from the roots for 72 hours, and then ten second instar larvae of Laodelphax striatella were each released thereto. […] The test was performed in duplicate.

Aphis gossypii = test: Reference Test Example 3 Pest control test of Aphis gossypii (foliar treatment, single agent); format: in vivo; design: Aphis gossypii (Reference Test Example 3), mortality of larvae: concentration or dose not given beside the values; details: foliar treatment, single agent
rice blast = format: in vivo; details: single agent 0.5 ppm; foliar application; fourteen days after inoculation
[6] = system: Frankliniella occidentalis; test: whole plant or invertebrate
Experimental: as §3, with “an air drying process, first” for “the rice seedling was left to stand for 3 days, second”
(A: 100−(mortality of larvae or adults when treated only with Compound P212)
B: 100−(mortality of larvae or adults when treated with only the insecticide imidacloprid, dinotefuran, or acetamiprid))
as §2
When the mortality against Frankliniella occidentalis in the case of a mixture with another agent exceeded the theoretical value given by Colby's equation, a synergistic effect was judged to be present.

Laodelphax striatella [7] = test: whole plant or invertebrate; format: in vivo
Experimental: as §1, §2

Rhizoctonia solani = test: Test Example 12 Test of control of rice sheath blight (Rhizoctonia solani); format: in vivo; details: single agent 5 ppm; foliar spray; six days after inoculation
[8] = Haemaphysalis longicornis, topical, 120 h, capsule on mouse, five days, mortality and agonal rate
[9] = Laodelphax striatellus, soil, 72 h, soil irrigation
[10] = Laodelphax striatellus, foliar, 72 h, read-out: Mortality of single agent against Laodelphax striatella

Molecule: O=c1c(-c2ccccc2)c([O-])[n+](Cc2ccc(Cl)nc2)c2ccccn12 [1-((6-chloropyridin-3-yl)methyl)-4-oxo-3-phenyl-4H-pyrido[1,2-a]pyrimidin-1-ium-2-olate]
- mortality at 1 ppm (Plutella xylostella [1]; Plutella xylostella, foliar, 72 h, read-out: Mortality of single agent against Plutella xylostella, single agent 1 ppm, cabbage leaf disk spray, three days): 30%
- Theoretical value by Colby's equation (Plutella xylostella [1]; Plutella xylostella, single agent 1 ppm (other component 0)): 30%

Molecule: Cc1ccc(/N=C/N(C)/C=N/c2ccc(C)cc2C)c(C)c1 [Amitraz]
- mortality at 0.00038 mg [2, 8]: 41%

Molecule: CNC(=O)c1cc(Cl)cc(C)c1NC(=O)c1cc(Br)nn1-c1ncccc1Cl [Chlorantraniliprole]
- Theoretical value by Colby's equation (Spodoptera litura; 0.02 ppm): 20%
- mortality at 0.02 ppm (Spodoptera litura; Spodoptera litura, foliar, 72 h, read-out: Mortality of single agent against Spodoptera litura, single agent 0.02 ppm, cabbage leaf disk spray, three days): 20%
- mortality at 0.05 mg/seedling (Laodelphax striatella [3]; [9]): 9%
- Mortality of single agent against Chilo suppressalis (Chilo suppressalis; single agent 0.0005 mg/seedling): 60%
- Theoretical value by Colby's equation (Plutella xylostella [1]; 0.002 ppm): 60%
- mortality at 0.002 ppm (Plutella xylostella [1]; Plutella xylostella, foliar, 72 h, read-out: Mortality of single agent against Plutella xylostella, single agent 0.002 ppm, cabbage leaf disk spray, three days): 60%

Molecule: CN/C(=N\[N+](=O)[O-])NCc1cnc(Cl)s1 [Clothianidin]
- mortality at 0.005 mg/seedling (Laodelphax striatella [3]; [9]): 23%

Molecule: O=C(N=c1ccccn1Cc1cnc(Cl)nc1)C(F)(F)F [Compound P-243]
- Plutella xylostella (Reference Test Example 1), mortality of larvae (Plutella xylostella [4]): 100%
- Laodelphax striatella (Reference Test Example 18), mortality of larvae (Laodelphax striatella [5]): 100%
- Aphis gossypii (Reference Test Example 3), mortality of larvae (Aphis gossypii): 100%

Molecule: CNC(=O)c1cc(C#N)cc(C)c1NC(=O)c1cc(Br)nn1-c1ncccc1Cl [Cyantraniliprole]
- Mortality of single agent against Chilo suppressalis (Chilo suppressalis; single agent 0.005 mg/seedling): 83%

Molecule: O=[N+]([O-])C1=C2N(Cc3ccc(Cl)nc3)CCN2[C@H]2CC[C@@H]1O2 [Cycloxaprid]
- Theoretical value by Colby's equation (Laodelphax striatella [3]; single agent 0.005 mg/Seedling (other component 0)): 0%
- Mortality of single agent against Laodelphax striatella (Laodelphax striatella [3]; single agent 0.005 mg/Seedling, soil irrigation): 0%

Molecule: C[C@@H](NC(=O)C(C#N)C(C)(C)C)c1ccc(Cl)cc1Cl (stereo partly drawn) [Diclocymet]
- Preventive value (Rice blast test, number of lesions) (rice blast): 8

Molecule: CN/C(=N/CC1CCOC1)N[N+](=O)[O-] (stereo not drawn) [Dinotefuran]
- Theoretical value by Colby's equation ([6]; 5 ppm): 35%
- mortality at 5 ppm ([6]; Frankliniella occidentalis, foliar, 72 h, read-out: Mortality of single agent against Frankliniella occidentalis): 35%
- mortality at 0.005 mg/seedling (Laodelphax striatella [3]; [9]): 0%

Molecule: CCOc1ccc(C(C)(C)COCc2cccc(Oc3ccccc3)c2)cc1 [Etofenprox]
- mortality at 10 ppm (Laodelphax striatella [7]; [10]): 30%
- Theoretical value by Colby's equation (Laodelphax striatella [7]; foliar, 10 ppm): 30%

Molecule: CCc1nc2cc(C)c(Oc3ccc(OC(F)(F)F)cc3)cc2c(OC(=O)OC)c1C [Flometoquin]
- Theoretical value by Colby's equation (Spodoptera litura; Spodoptera litura, single agent 5 ppm (other component 0)): 10%
- Mortality of single agent against Spodoptera litura (Spodoptera litura; single agent 5 ppm, cabbage leaf disk spray, three days): 10%
- Theoretical value by Colby's equation (Plutella xylostella [1]; Plutella xylostella, single agent 0.313 ppm (other component 0)): 0%
- Mortality of single agent against Plutella xylostella (Plutella xylostella [1]; single agent 0.313 ppm, cabbage leaf disk spray, three days): 0%

Molecule: O=C1C=C(N(Cc2ccc(Cl)nc2)CC(F)F)CO1 [Flupyradifurone]
- Theoretical value by Colby's equation (Laodelphax striatella [3]; single agent 0.01 mg/Seedling (other component 0)): 5%
- Mortality of single agent against Laodelphax striatella (Laodelphax striatella [3]; single agent 0.01 mg/Seedling, soil irrigation): 5%

Molecule: Cc1nn(C)c(Cl)c1C(=O)Nc1cccc2c1C(C)OC2(C)C (stereo not drawn) [Furametpyr]
- Preventive value (Sheath blight test, lesion height) (Rhizoctonia solani): 77

Molecule: N#Cc1ccccc1NC(=O)c1snc(Cl)c1Cl [Isotianil]
- Theoretical value by Colby's equation (Laodelphax striatella [3]; single agent 0.5 mg/Seedling (other component 0)): 5%
- Mortality of single agent against Laodelphax striatella (Laodelphax striatella [3]; single agent 0.5 mg/Seedling, soil irrigation): 5%
- Preventive value (Rice blast test, number of lesions) (rice blast): 66

Molecule: CC[C@H](C)[C@H]1O[C@]2(CC[C@@H]1C)C[C@@H]1C[C@@H](C/C=C(\C)[C@@H](O[C@H]3C[C@H](OC)[C@@H](O[C@H]4C[C@H](OC)[C@@H](O)[C@H](C)O4)[C@H](C)O3)[C@@H](C)/C=C/C=C3\CO[C@@H]4[C@H](O)C(C)=C[C@@H](C(=O)O1)[C@]34O)O2 [Ivermectin]
- Mortality of single agent against Haemaphysalis longicornis ([2]; single agent 0.009 μg, capsule on mouse, five days, mortality and agonal rate): 3%

Molecule: C[C@H]1O[C@H](O[C@H]2[C@H](O)[C@@H](O)[C@@H](O)[C@H](O)[C@@H]2O)[C@@H](N)C[C@@H]1NC(=N)C(=O)O [Kasugamycin]
- Preventive value (Rice blast test, number of lesions) (rice blast): 0

Molecule: CO/N=C1\C[C@]2(C[C@@H]3C[C@@H](C/C=C(\C)C[C@@H](C)/C=C/C=C4\CO[C@@H]5[C@H](O)C(C)=C[C@@H](C(=O)O3)[C@]45O)O2)O[C@H](/C(C)=C/C(C)C)[C@H]1C [Moxidectin]
- mortality at 9 ng ([2]; Haemaphysalis longicornis, topical, 120 h, read-out: Mortality of single agent against Haemaphysalis longicornis, single agent 0.009 μg, capsule on mouse, five days, mortality and agonal rate): 6%

Molecule: O=C(Nc1ccccc1)N(Cc1ccc(Cl)cc1)C1CCCC1 [Pencycuron]
- Preventive value (Sheath blight test, lesion height) (Rhizoctonia solani): 69

Molecule: CC1(C)C(C=C(Cl)Cl)C1C(=O)OCc1cccc(Oc2ccccc2)c1 (stereo not drawn) [Permethrin]
- mortality at 0.0095 mg ([2]; Haemaphysalis longicornis, topical, 120 h, read-out: Mortality of single agent against Haemaphysalis longicornis, single agent 9.5 μg, capsule on mouse, five days, mortality and agonal rate): 71%

Molecule: CC1=NNC(=O)N(/N=C/c2cccnc2)C1 [Pymetrozine]
- mortality at 0.05 mg/seedling (Laodelphax striatella [3]; [9]): 15%

Molecule: CCOc1ccc([Si](C)(C)CCCc2ccc(F)c(Oc3ccccc3)c2)cc1 [Silafluofen]
- Mortality of single agent (Laodelphax striatella [7]; Laodelphax striatella foliar, single agent 5 ppm (other component 0)): 55%
- mortality at 5 ppm (Laodelphax striatella [7]; [10]): 55%

Molecule: C[Si](C)(C)CC(O)(Cn1cncn1)c1ccc(F)cc1 (stereo not drawn) [Simeconazole]
- Preventive value (Sheath blight test, lesion height) (Rhizoctonia solani): 5

Molecule: CC(c1ccc(C(F)(F)F)nc1)S(C)(=O)=NC#N (stereo not drawn) [Sulfoxaflor]
- mortality at 0.005 mg/seedling (Laodelphax striatella [3]; [9]): 1%

Molecule: CC(=O)Oc1c(C)c(C)nc2c(F)cc(C(C)(C)C)cc12 [Tebufloquin]
- Preventive value (Rice blast test, number of lesions) (rice blast): 48

Molecule: CN1COCN(Cc2cnc(Cl)s2)/C1=N\[N+](=O)[O-] [Thiamethoxam]
- mortality at 0.01 mg/seedling (Laodelphax striatella [3]; Laodelphax striatellus, soil, 72 h, read-out: Mortality of single agent against Laodelphax striatella, single agent 0.01 mg/Seedling, soil irrigation): 23%

Molecule: Cc1nc(C(F)(F)F)c(C(=O)Nc2c(Br)cc(OC(F)(F)F)cc2Br)s1 [Thifluzamide]
- Preventive value (Sheath blight test, lesion height) (Rhizoctonia solani): 92

Molecule: Cc1ccc(NC(=O)c2snnc2C)cc1Cl [Tiadinil]
- mortality at 0.5 mg/seedling (Laodelphax striatella [3]; Laodelphax striatellus, soil, 72 h, read-out: Mortality of single agent against Laodelphax striatella, single agent 0.5 mg/Seedling, soil irrigation): 8%
- Preventive value (Rice blast test, number of lesions) (rice blast): 0

Molecule: Cc1cccc2sc3nncn3c12 [Tricyclazole]
- Preventive value (Rice blast test, number of lesions) (rice blast): 72

Molecule: CN/C(=N/CC1CCOC1)N[N+](=O)[O-] (stereo not drawn) [dinotefuran]
- mortality at 0.0019 mg ([2]; Haemaphysalis longicornis, topical, 120 h, read-out: Mortality of single agent against Haemaphysalis longicornis, single agent 1.9 μg, capsule on mouse, five days, mortality and agonal rate): 0%

Molecule: N#Cc1nn(-c2c(Cl)cc(C(F)(F)F)cc2Cl)c(N)c1[S+]([O-])C(F)(F)F (stereo not drawn) [fipronil]
- mortality at 0.00038 mg [2, 8]: 78%

Molecule: CC(COc1ccc(Oc2ccccc2)cc1)Oc1ccccn1 (stereo not drawn) [pyriproxyfen]
- mortality at 47.5 ng ([2]; Haemaphysalis longicornis, topical, 120 h, read-out: Mortality of single agent against Haemaphysalis longicornis, single agent 0.0475 μg, capsule on mouse, five days, mortality and agonal rate): 2%

Molecule: Emamectin benzoate
- Theoretical value by Colby's equation (Spodoptera litura; Spodoptera litura, single agent 0.02 ppm (other component 0)): 0%
- Mortality of single agent against Spodoptera litura (Spodoptera litura; single agent 0.02 ppm, cabbage leaf disk spray, three days): 0%

Molecule: spinetoram
- Theoretical value by Colby's equation ([2]; Haemaphysalis longicornis, single agent 0.38 μg (other component 0)): 6%
- Mortality of single agent against Haemaphysalis longicornis ([2]; single agent 0.38 μg, capsule on mouse, five days, mortality and agonal rate): 6%

Molecule: spinosad
- Theoretical value by Colby's equation ([2]; Haemaphysalis longicornis, single agent 1.9 μg (other component 0)): 2.5%
- Mortality of single agent against Haemaphysalis longicornis ([2]; single agent 1.9 μg, capsule on mouse, five days, mortality and agonal rate): 2.5%
